These results are taken from patent publication US11084830B2, “Five-membered non aromatic ring-pyrimidine HIV-1 reverse transcriptase inhibitor, preparation method therefor, and uses thereof” (priority 2018, dated 2021).

The subject of one data set is WT HIV-1 strain (IIIB). Description: Anti-HIV-1 activity in MT-4 cells, MTT method, wild-type strain IIIB. The class given is cell-based. As to conditions: for EC50: Human immunodeficiency virus 1, IIIB, MT4, read-out: EC50 IIIB; for SI IIIB: selectivity index, ratio of CC50/EC50, strain IIIB. The procedure: (§1) Antiviral potency was evaluated in MT-4 cell cultures infected with WT HIV-1 strain (IllB) as well as cells infected with a panel of NNRTI-resistant double-mutant strain K103N+Y181C (RES056).
(§2) Selected compounds were screened for inhibitory activity against HIV-1 using MTT method as describe previously by Christophe. Pannecouque et al. Nat. Protoc. […] And in vitro anti-HIV activity of compounds were supported by Rega Institute for Medical Research. The MTT assay is based on the reduction of the yellow colored 3-(4,5-dimethylthiazol-2-yl)-2,5-diphenyltetrazolium bromide (MTT) by mitochondrial dehydrogenases of metabolically active cells to a blue formazan which can be measured spectrophotometrically. Tested optical density served as an indicator for live cells, and survival rate can be concluded by testing the optical density of 540 nm and 690 nm. MT-4 cells infected with HIV-1 can only survive for 5 to 7 days without any treatment, but when HIV-1 inhibitors were added, they can protect MT-4 cell from cytopathic. Serial solution of compounds was added to MT-4 cells after infected with HIV-1, MTT method was used to detect the survival rate after culture for 5 to 7 days.
(§3) (1) MT-4 cells infected with HIV-1 viral strains (IIIB, Y181C/K103N) were provided by Rega Institute for Medical Research, Katholieke Universiteit Leuven, Belgium.
(§4) (3) Preparation of compounds: Stock solutions (10×final concentration) of test compounds is diluted with double distilled H2O for 5 folds and 5 concentrations of one compound are prepared.
(§5) (5) Test method (MTT method): Serial five-fold dilutions of test compounds were added to cultured MT-4 cells infected with HIV-1, after 5 to 7 days, MTT was added and cultured for a few hours.
(§6) The MTT method was described briefly as follows: stock solutions (10×final concentration) of test compounds were added in 25 μL volumes to two series of triplicate wells in order to allow simultaneous evaluation of the effects on mock- and HIV-infected cells. Using a Biomek 3000 robot (Beckman Instruments, Fullerton, Calif.), serial five-fold dilutions of the test compounds (final 200 μL volume per well) were made directly in flat-bottomed 96-well microtiter trays, including untreated control HIV-1 and mock-infected cell samples for each sample. […] Mock-infected cells were used to evaluate the effect of test compounds on uninfected cells to assess cytotoxicity. Exponentially growing MT-4 cells were centrifuged for 5 min at 1000 rpm and the supernatant was discarded. […] At five days after infection, the viability of mock- and HIV-infected cells was determined spectrophotometrically by means of MTT assay.
(§7) The MTT assay is based on the reduction of yellow-colored MTT (Acros Organics, Geel, Belgium) by mitochondrial dehydrogenase of metabolically active cells to form a blue-purple formazan that can be measured spectrophotometrically. The absorbances were read in an eight-channel computer-controlled photometer, at the wavelengths of 540 and 690 nm. All data were calculated using the median optical density (OD) value of three wells.
In general terms: Tetrazolium assays rely on reduction of a dye to a coloured formazan, in cell work by metabolically active cells.

Data set [1] relates to NNRTI-resistant double-mutant strain K103N+Y181C (RES056). Description: microbe, parasite or virus in culture. As to conditions: for EC50: Human immunodeficiency virus 1, MT4, read-out: EC50 RES056; for SI RES056: selectivity index, ratio of CC50/EC50, strain RES056. The class given is cell-based, HIV-1. The method, then:
as §1, §2, §3, §4, §5, §6, §7

The nature of data set [2]: Cytotoxicity in mock-infected MT-4 cells, MTT method. Format: cell-based. To be noted: human. The procedure:
(§8) The MTT method was described briefly as follows: stock solutions (10×final concentration) of test compounds were added in 25 μL volumes to two series of triplicate wells in order to allow simultaneous evaluation of the effects on mock- and HIV-infected cells. Using a Biomek 3000 robot (Beckman Instruments, Fullerton, Calif.), serial five-fold dilutions of the test compounds (final 200 μL volume per well) were made directly in flat-bottomed 96-well microtiter trays, including untreated control HIV-1 and mock-infected cell samples for each sample. HIV-1 (IIIB) and mutant HIV-1 strains stock (50 μL at 100-300 CCID50) or culture medium was added to either the infected or mock-infected wells of the microtiter tray. Mock-infected cells were used to evaluate the effect of test compounds on uninfected cells to assess cytotoxicity. Exponentially growing MT-4 cells were centrifuged for 5 min at 1000 rpm and the supernatant was discarded. The MT-4 cells were resuspended at 6×10^5 cells/mL, and 50 μL aliquots were transferred to the microtiter tray wells. At five days after infection, the viability of mock- and HIV-infected cells was determined spectrophotometrically by means of MTT assay.
as §7

For another data set, the system named is mock-infected MT-4 cells. The data set is described as above. Format: cell-based. To be noted: human, 5 days. The procedure: as §8, §7
Where [3] appears, read: concentration reducing viability of mock-infected MT-4 cell cultures by 50%, MTT method, read-out: CC50.

In general, EC50 refers to the concentration giving half of the maximal effect. In general, CC50 refers to the concentration that lowers cell viability or growth by half.

Structures are written as SMILES. Read-outs that look alike come from different tables or passages of the source.

Regarding `Cc1cc(C#N)cc(C)c1Oc1nc(NC2CCN(Cc3ccncc3)CC2)nc2c1COC2` [Compound B4, 3,5-dimethyl-4-((2-((1-(pyridin-4-ylmethyl)piperidin-4-yl)amino)-5,7-dihydrofuro[3,4-d]pyrimidin-4-yl)oxy)benzonitrile], in the data set with WT HIV-1 strain (IIIB), the EC50 turned out to be 2.8 nM and the “SI IIIB” value was 11414. Further, in data set [1], the EC50 worked out at 43.1 ± 1.2 nM and the “SI RES056” value worked out at 753. The same compound displayed a CC50 at 5 days in data set [2] (CC50) of 32500 ± 10000 nM.

For `Cc1cc(C#N)cc(C)c1Oc1nc(NC2CCN(Cc3ccc(C(N)=O)cc3)CC2)nc2c1SCC2` [Compound A2, 4-((4-((4-(4-cyano-2,6-dimethylphenoxy)-6,7-dihydrothieno[3,2-d]pyrimidin-2-yl)amino)piperidin-1-yl)methyl)benzamide], in the data set with WT HIV-1 strain (IIIB), the “SI IIIB” value came to 34162. In addition, in data set [1], the EC50 stood at 43.6 ± 5 nM and the “SI RES056” value is 3804. In the data set with mock-infected MT-4 cells, this compound returned a CC50 of 165000 ± 36900 nM.

Take `Cc1cc(C#N)cc(C)c1Oc1nc(NC2CCN(Cc3ccc(S(C)(=O)=O)cc3)CC2)nc2c1COC2` [Compound B3, 3,5-dimethyl-4-((2-((1-(4-(methylsulfonyl)benzyl)piperidin-4-yl)amino)-5,7-dihydrofuro[3,4-d]pyrimidin-4-yl)oxy)benzonitrile]: in the data set on WT HIV-1 strain (IIIB), the EC50 turned out to be 1.8 nM and the “SI IIIB” value was 14414. For the same compound, in data set [1], the EC50 stood at 41.6 ± 4.9 nM and the “SI RES056” value is given as 648. The CC50 at 5 days in data set [2] (CC50) amounted to 27000 ± 3030 nM.

As to `Cc1cc(C#N)cc(C)c1Oc1nc(NC2CCN(Cc3ccc([N+](=O)[O-])cc3)CC2)nc2c1COC2` [Compound B5, 3,5-dimethyl-4-((2-((1-(4-nitrobenzyl)piperidin-4-yl)amino)-5,7-dihydrofuro[3,4-d]pyrimidin-4-yl)oxy)benzonitrile], the “SI IIIB” value in the data set with WT HIV-1 strain (IIIB) was at least 1497. Moreover, in data set [1], the EC50 worked out at 511 ± 165 nM and the “SI RES056” value is recorded as at least 22. Further, the CC50 at 5 days in data set [2] (CC50) is at least 11100 nM.

Turning to `Cc1cc(C#N)cc(C)c1Oc1nc(NC2CCN(Cc3ccc([N+](=O)[O-])cc3)CC2)nc2c1CCC2` [Compound C5, 3,5-dimethyl-4-((2-((1-(4-nitrobenzyl)piperidin-4-yl)amino)-6,7-dihydro-5H-cyclopenta[d]pyrimidin-4-yl)oxy)benzonitrile], in the data set on WT HIV-1 strain (IIIB), the EC50 was 4.9 ± 0.8 nM and the “SI IIIB” value is 1495. Also, in data set [1], the EC50 worked out at 187 nM and the “SI RES056” value was determined as 40. In data set [2] (CC50), this compound came in with a CC50 at 5 days of 7450 ± 930 nM.

Regarding `Cc1cc(C#N)cc(C)c1Oc1nc(NC2CCN(Cc3ccc(C(N)=O)cc3)CC2)nc2c1CCC2` [Compound C2, 4-((4-((4-(4-cyano-2,6-dimethylphenoxy)-6,7-dihydro-5H-cyclopenta[d]pyrimidin-2-yl)amino)piperidin-1-yl)methyl)benzamide], the “SI IIIB” value with WT HIV-1 strain (IIIB) is over 40984. Moreover, in data set [1], the EC50 is 173 ± 110 nM and the “SI RES056” value is given as over 1448. The compound further displayed a CC50 at 5 days in data set [2] (CC50) of over 251000 nM.

Regarding `Cc1cc(C#N)cc(C)c1Oc1nc(NC2CCN(Cc3ccc(S(C)(=O)=O)cc3)CC2)nc2c1CCC2` [Compound C3, 3,5-dimethyl-4-((2-((1-(4-(methylsulfonyl)benzyl)piperidin-4-yl)amino)-6,7-dihydro-5H-cyclopenta[d]pyrimidin-4-yl)oxy)benzonitrile], the values for the EC50 (in the data set with WT HIV-1 strain (IIIB); in data set [1]) were 1.8 ± 0.7 nM and 54.7 ± 6.22 nM, respectively. Moreover, the “SI RES056” value in data set [1] is reported as over 5020. Moreover, the CC50 at 5 days in data set [2] (CC50) was over 274000 nM; in data set [2] (setting [3]), over 200000 nM.

As to `Cc1cc(C#N)cc(C)c1Oc1nc(NC2CCN(Cc3cccc(C(N)=O)c3)CC2)nc2c1COC2` [Compound B6, 3-((4-((4-(4-cyano-2,6-dimethylphenoxy)-5,7-dihydrofuro[3,4-d]pyrimidin-2-yl)amino)piperidin-1-yl)methyl)benzamide], the EC50 is 7.8 ± 3.4 nM in the data set with WT HIV-1 strain (IIIB) and 1030 ± 51.1 nM in data set [1]. Also, the CC50 at 5 days in data set [2] (CC50) is over 250000 nM.

`Cc1cc(C#N)cc(C)c1Oc1nc(Nc2ccc(C#N)cc2)nc(N)c1Br` [ETR, Etravirine, reference compound] had a CC50 at 5 days in data set [2] (CC50) of over 4590 nM.

On to `Cc1cc(C#N)cc(C)c1Oc1nc(NC2CCN(Cc3ccc(S(N)(=O)=O)cc3)CC2)nc2c1CSC2` [Compound D1, 4-((4-((4-(4-cyano-2,6-dimethylphenoxy)-5,7-dihydrothieno[3,4-d]pyrimidin-2-yl)amino)piperidin-1-yl)methyl)benzenesulfonamide], for which the “SI IIIB” value with WT HIV-1 strain (IIIB) is reported as 715. Moreover, in data set [1], the EC50 is 734 ± 337 nM and the “SI RES056” value is reported as 36. In addition, half-maximal cytotoxicity in the data set with mock-infected MT-4 cells (CC50) was put at 26600 ± 1960 nM.

Take `Cc1cc(C#N)cc(C)c1Oc1nc(NC2CCN(Cc3cccc(C(N)=O)c3)CC2)nc2c1CCC2` [Compound C6, 3-((4-((4-(4-cyano-2,6-dimethylphenoxy)-6,7-dihydro-5H-cyclopenta[d]pyrimidin-2-yl)amino)piperidin-1-yl)methyl)benzamide]: in the data set with WT HIV-1 strain (IIIB), the EC50 stood at 14.5 ± 3.6 nM and the “SI IIIB” value is listed as 599. In data set [1], the EC50 was determined as 941 ± 368 nM and the “SI RES056” value is given as 9. Besides, the midpoint of cytotoxicity in data set [2] (CC50), the CC50 at 5 days, lay at 8730 ± 3530 nM.

In the case of `Cc1ccnc2c1NC(=O)c1cccnc1N2C1CC1` [NVP, Nevirapine, reference compound], the EC50 with WT HIV-1 strain (IIIB) was 163 ± 41.2 nM; in data set [1] it was over 9510 nM. The CC50 at 5 days in data set [2] (mock-infected MT-4 cells, concentration reducing viability of mock-infected MT-4 cell cultures by 50%, MTT method, read-out: CC50) is over 9510 nM.

Take `Cc1cc(C#N)cc(C)c1Oc1nc(NC2CCN(Cc3ccncc3)CC2)nc2c1SCC2` [Compound A4, 3,5-dimethyl-4-((2-((1-(pyridin-4-ylmethyl)piperidin-4-yl)amino)-6,7-dihydrothieno[3,2-d]pyrimidin-4-yl)oxy)benzonitrile]: the “SI IIIB” value with WT HIV-1 strain (IIIB) was at least 40104. Besides, in data set [1], the EC50 stood at 46 ± 1.9 nM and the “SI RES056” value is recorded as at least 2305. This compound also had a CC50 at 5 days in data set [2] (CC50) of at least 106000 nM.

Regarding `Cc1cc(C#N)cc(C)c1Oc1nc(NC2CCN(Cc3ccc(S(N)(=O)=O)cc3)CC2)nc2c1COC2` [Compound B1, 4-((4-((4-(4-cyano-2,6-dimethylphenoxy)-5,7-dihydrofuro[3,4-d]pyrimidin-2-yl)amino)piperidin-1-yl)methyl)benzenesulfonamide], in the data set on WT HIV-1 strain (IIIB), the EC50 was found to be 2 ± 0.2 nM and the “SI IIIB” value is on record as 11167. In data set [1], the EC50 worked out at 38 ± 7.5 nM and the “SI RES056” value came out at 604. In data set [2] (CC50), this compound showed a CC50 at 5 days of 22900 ± 2890 nM.

`Cc1cc(C#N)cc(C)c1Oc1nc(NC2CCN(Cc3cccc(C(N)=O)c3)CC2)nc2c1SCC2` [Compound A6, 3-((4-((4-(4-cyano-2,6-dimethylphenoxy)-6,7-dihydrothieno[3,2-d]pyrimidin-2-yl)amino)piperidin-1-yl)methyl)benzamide]: the “SI IIIB” value with WT HIV-1 strain (IIIB) is at least 8048. Also, in data set [1], the EC50 amounted to 629 nM and the “SI RES056” value is recorded as at least 355. The compound further showed a CC50 at 5 days in data set [2] (CC50) of at least 223000 nM.

Regarding `Cc1cc(C#N)cc(C)c1Oc1nc(NC2CCN(Cc3ccncc3)CC2)nc2c1CCC2` [Compound C4, 3,5-dimethyl-4-((2-((1-(pyridin-4-ylmethyl)piperidin-4-yl)amino)-6,7-dihydro-5H-cyclopenta[d]pyrimidin-4-yl)oxy)benzonitrile], the figures for the EC50 (in the data set on WT HIV-1 strain (IIIB); in data set [1]) were 2 ± 0.5 nM and 26800 nM, respectively. The “SI RES056” value in data set [1] was found to be 9. In addition, the CC50 at 5 days was 205000 ± 1130 nM in data set [2] (CC50) and over 200000 nM in data set [2] (setting [3]).
